Assay results published in US10611771B2, “Pyrazolo [3,4-d] pyrimidine derivative” (WEST CHINA HOSPITAL, SICHUAN UNIVERSITY, priority 2016, dated 2020).
Several values for one entry are separate records, joined by “and”; a condition that tells them apart may be missing. Equal values may be shown once.

Test system: A549 cells
Experiment: MTT detection method, inhibitory effect against A549 cells
Assay type: cell-based
Text: MTT detection method was used, and MTT is a yellow compound and a dye accepting hydrogen ions, and can be used as the respiratory chain in mitochondria of viable cells. Under the action of succinate dehydrogenase and cytochrome C, the tetrazolium ring broke to form blue formanzan crystal, and the formation amount of formanzan crystal was only directly proportional to the viable counts. The formanzan crystal formed by reduction can dissolve in dimethyl sulfoxide (DMSO), and the optical density (OD) value can be determined at 490 nm using ELISA, to reflect the viable counts.
• Lung cancer cell lines: A549 and H1299. • Experimental materials: lung cancer cell lines, instruments and tools for cell culture, MTT, the compound mother liquid (10 mmol/L), and the positive control drug Src inhibitor pp1. 1. Specific Method • (3-1) Cell lines A549 and H1299 were recovered, and when the cells were in good conditions, namely cells grew to about 80% after one passage (i.e. the logarithmic growth phase), the cells were planked (96-well plate). • (3-2) Firstly, cells were collected, and the concentration of cell suspension was adjusted with counting chamber. Cells were seeded in 96-well plate at 1000˜10000 cells/well, and the detailed cell numbers in each well were dependent on the growth rate of different cells and the action time of drugs. A549 cells were seeded at 5000 cells, while H1299 cells were also seeded at 5000 cells, 200 μl for each well (100 μl cell suspension+100 μl drug dilution at different concentration gradient). The edge wells (36) were added 200 μl culture media (for prevention of edge effect). • (3-3) After planking and adding drugs, the plate was treated at 24 h, 48 h, and 72 h, and then for coloration, each well was added 200 μl culture media containing 20 μl MTT solution (5 mg/mL). The plate was continually cultured for 1˜4 hours, the incubation was stopped, and the culture supernatant fluid in each well was carefully absorbed. For suspension cells, the culture supernatant fluid in each well need be centrifuged before drawing. 150 μl DMSO was added to each well, and the plate was shaken on a shaking table for 15˜20 min, to allow the crystals to be completely dissolved. • (3-4) Colorimetry: The colorimetry was performed by ELISA, and the optical absorption value of each well was tested at a wavelength of 490 nm or 570 nm, and the result was recorded. • (3-5) Calculation Inhibition ratio=(the control−the drug)/the control×100% • IC50 (50% inhibitory concentration) can be calculated by spass software based on the inhibitory ratio at different concentration. II. Experimental Results • A549 cells were treated at 4 h, 24 h, 48 h, 72 h, and the drug dose was divided into the light concentration group (10 μm, 25 μm, 40 μm) and the high concentration group (50 μm, 80 μm, 100 μm), that were seeded at 6000 cells/well and 5000 cells/well, respectively, to carry out the experiment.

With `Cc1ccc(-c2nn(C(C)(C)C)c3ncnc(N)c23)cc1` [PP1, reference compound] the “The inhibitory ratio (%) for three parallel assays” value (“The inhibitory ratio (%)” for short) (4 h, 10 μm) was 14.06% and 5.63% and 10.31%, the “The mean inhibitory ratio (%)” value (4 h, 10 μm) was 10.00% and the “The mean inhibitory ratio (%)” value (4 h, 25 μm) was 8.44%. The “The inhibitory ratio (%)” value (4 h, 40 μm) was 31.88% and 35.00% and 23.44%, the “The mean inhibitory ratio (%)” value (4 h, 40 μm) was 30.10% and the “The inhibitory ratio (%)” value (4 h, 50 μm) was 26.86% and 23.43% and 24.00%. For the same molecule, the “The mean inhibitory ratio (%)” value (4 h, 50 μm) was 24.76%, the “The inhibitory ratio (%)” value (4 h, 80 μm) was 32.86% and 31.43% and 30.00% and the “The mean inhibitory ratio (%)” value (4 h, 80 μm) was 31.43%. For the same molecule, the “The inhibitory ratio (%)” value (4 h, 100 μm) was 44.00% and 43.43%, the “The mean inhibitory ratio (%)” value (4 h, 100 μm) was 43.81% and the “The inhibitory ratio (%)” value (24 h, 10 μm) was 14.13% and 14.78% and 11.09%. The “The mean inhibitory ratio (%)” value (24 h, 10 μm) was 13.33%, the “The inhibitory ratio (%)” value (24 h, 25 μm) was 49.35% and 47.39% and 48.04% and the “The mean inhibitory ratio (%)” value (24 h, 25 μm) was 48.26%. The “The inhibitory ratio (%)” value (24 h, 40 μm) was 63.91% and 64.13% and 64.35%, the “The mean inhibitory ratio (%)” value (24 h, 40 μm) was 64.13% and the “The inhibitory ratio (%)” value (24 h, 50 μm) was 56.46% and 55.83% and 56.04%. For the same molecule, the “The mean inhibitory ratio (%)” value (24 h, 50 μm) was 56.11%, the “The inhibitory ratio (%)” value (24 h, 80 μm) was 74.79% and 72.92% and 73.54% and the “The mean inhibitory ratio (%)” value (24 h, 80 μm) was 73.75%. The “The inhibitory ratio (%)” value (24 h, 100 μm) was 80.63% and 79.58% and 79.17%, the “The mean inhibitory ratio (%)” value (24 h, 100 μm) was 79.79% and the “The inhibitory ratio (%)” value (48 h, 10 μm) was 48.91% and 48.44% and 45.94%. The “The mean inhibitory ratio (%)” value (48 h, 10 μm) was 47.76%, the “The inhibitory ratio (%)” value (48 h, 25 μm) was 66.88% and 67.03% and 66.72% and the “The mean inhibitory ratio (%)” value (48 h, 25 μm) was 66.88%. For the same molecule, the “The inhibitory ratio (%)” value (48 h, 40 μm) was 74.53% and 74.22%, the “The mean inhibitory ratio (%)” value (48 h, 40 μm) was 74.43% and the “The inhibitory ratio (%)” value (48 h, 50 μm) was 69.50% and 67.00% and 66.67%. The “The mean inhibitory ratio (%)” value (48 h, 50 μm) was 67.72%, the “The inhibitory ratio (%)” value (48 h, 80 μm) was 81.17% and 80.00% and 80.17% and the “The mean inhibitory ratio (%)” value (48 h, 80 μm) was 80.44%. The “The inhibitory ratio (%)” value (48 h, 100 μm) was 82.50% and 81.33% and 82.33%, the “The mean inhibitory ratio (%)” value (48 h, 100 μm) was 82.06% and the “The inhibitory ratio (%)” value (72 h, 10 μm) was 63.42% and 63.87% and 64.59%. For the same molecule, the “The mean inhibitory ratio (%)” value (72 h, 10 μm) was 63.96%, the “The inhibitory ratio (%)” value (72 h, 25 μm) was 83.06% and 82.97% and 83.69% and the “The mean inhibitory ratio (%)” value (72 h, 25 μm) was 83.24%. The “The inhibitory ratio (%)” value (72 h, 40 μm) was 86.76% and 86.13% and 87.66%, the “The mean inhibitory ratio (%)” value (72 h, 40 μm) was 86.85% and the “The inhibitory ratio (%)” value (72 h, 50 μm) was 82.70% and 81.35% and 82.43%. For the same molecule, the “The mean inhibitory ratio (%)” value (72 h, 50 μm) was 82.16%, the “The inhibitory ratio (%)” value (72 h, 80 μm) was 85.95% and 86.22% and 86.08% and the “The mean inhibitory ratio (%)” value (72 h, 80 μm) was 86.08%. The “The inhibitory ratio (%)” value (72 h, 100 μm) was 85.41% and 85.68% and the “The mean inhibitory ratio (%)” value (72 h, 100 μm) was 85.59%.
